We go through two compounds from PMC12292445, “Physiologically Based Pharmacokinetic Modeling for Predicting Drug Levels After Bariatric Surgery: Vardenafil Exposure Before vs. After Gastric Sleeve/Bypass” (Biomolecules, 2025).

SMILES strings stand for the structures. In brackets after ≈: the same amount, converted by molar mass. Read-outs that look alike come from different tables or passages of the source. A value given as a limit tells only on which side of the number the result lay.

For data set [1] the following is noted: stated in discussion, no source given; cited from earlier work.
A further data set is described as follows: clinical. The method, then:
Values were either obtained from the literature, in silico predictions (ADMET Predictor® module, version 10.4.0.0; Simulations Plus Inc., Lancaster, CA, USA) based on the drug’s molecular structure, or experimentally determined. pH-dependent solubility data were input as an .spd file and used to fit the solubility factors in the solubility model. Drug dissolution along the GIT was calculated using the software default Johnson equation [58] based on the drug’s solubility and particle size. With the lack of data on commercial product drug particle size, 100 µm was chosen as an approximate value for all simulations. Regarding poor aqueous solubility, bile salts’ effect on drug solubility/dissolution was also accounted for. The drug precipitation time was set as the default 900 s. […] The distribution and elimination PK parameters of vardenafil were based on available data of in vivo plasma concentration over time following IV and PO drug administration, using the software-integrated PKPlus^TM module and optimized further while keeping the final values within the reported literature range (Table 3).

Data set [2] in a line: In vitro dissolution of whole tablets under pre- vs post-bariatric gastric conditions. The class given is physicochemical. To be noted: Levitra 20 mg tablet. The procedure:
The dissolution of whole tablet vardenafil (20 mg) products was studied in three different conditions, as previously described (n = 4 for each condition): (1) pH 1 maleic acid, 250 mL medium (pre-surgery conditions), with the USP dissolution apparatus II (Premiere 5100, Distek®, North Brunswick, NJ, USA), at 100 rpm paddle rotation; […] This rotation velocity was calculated, addressing the following parameters: the paddle size (D), volume of fluid (V), and agitation strength (ε), as follows: εlong/εshort=RPMlong3 × Dlong5/Vlong/RPMshort3 × Dshort5/Vshort These adjusted experimental conditions mimic pre- vs. post-bariatric intragastric dissolution conditions, including the pH, temperature, fluid volume, and contractility force, and were thus preferred over standard, compendial dissolution methods. Next, 300 µL samples were drawn for 90 min at 10 different time points and then filtered prior to ultra-performance liquid chromatography (UPLC) analysis (Table 1).

A short description of data set [3]: physchem. Type of data set: physicochemical. The method, then: The equilibrium solubility of vardenafil was determined by the previously described shake-flask method. Four different medium pHs were used: pH 1 and pH 3 (0.2 M maleic acid), pH 5 (0.2 M acetic acid), and pH 7 (0.2 M dihydrogen phosphate). Quadruplet (n = 4) samples of each buffer pH were prepared with drug powder added in excess, until saturation, to vials with 500 µL medium solution. Vial incubation was at 37 °C, with 200 rpm sample shaking for 24 h (Orbital Shaker Incubator, MRC Laboratory Instruments, Holon, Israel). Sample contents were then transferred to Eppendorf tubes for a 10 min centrifugation (Centrifuge 5430 R, Eppendorf®, Hamburg, Germany) at 20,817 rcf and 37 °C. Obtained supernatants were diluted as needed and immediately analyzed by UPLC-PDA (Table 1).

Data set [4] can be described thus: physchem. To be noted: human; for solubility: thermodynamic from solid. Type of data set: physicochemical. The method, then: The equilibrium solubility of vardenafil in gastric content was also tested using the shake-flask method mentioned above, which followed a procedure that had been recently described. In short, excess drug was added to glass vials containing samples of gastric content aspirated from three patients (1 SG, 1 RYGB, and 1 OAGB) during bariatric procedure time. Aspiration was performed through the nasogastric tube at three time points: before, immediately after , and 24 h post-surgery. Study protocol approval was given by the Ben-Gurion University School of Medicine institutional review board (institutional board request number 0248-18-SOR), and informed consent was obtained from all the participants prior to surgery. Following gastric content collection, pH was immediately measured and recorded. […] As vardenafil hydrochloride powder modified the pH of the post-bariatric gastric fluid, pH was adjusted with a small volume pH 7 buffer, as necessary.

On the set-up of data set [5]: method as in earlier work. To be noted: healthy fasted humans, digitized mean profile, cited from earlier work.
[6] abbreviates: estimated with PKPlus from in vivo IV and oral data, then optimized.

For the compound `CCCc1nn(C)c2c(=O)[nH]c(-c3cc(S(=O)(=O)N4CCN(C)CC4)ccc3OCC)nc12` [sildenafil], the pKa in data set [1] is listed as ~ 7.
Turning to `CCCc1nc(C)c2c(=O)[nH]c(-c3cc(S(=O)(=O)N4CCN(CC)CC4)ccc3OCC)nn12` [vardenafil], the “Distribution constant k12” value in “clinical” (setting [6]) is 3.090 h⁻¹. In addition, in “clinical” (setting [6]), the “Distribution constant k13” value is 0.448 h⁻¹. For the same compound, the “Distribution constant k21” value in the data set “clinical” (setting [6]) was 2.100 h⁻¹. Besides, in “clinical” (setting [6]), the “Distribution constant k31” value is 0.250 h⁻¹. The Vd in the data set “clinical” (human) amounted to 0.8 L/kg. In addition, the clearance in the data set “clinical” (human) is 15.4 mL/min/kg. The pKa in data set [1] is listed as ~ 7. Also, the “Dissolution (dose dissolved)” value is 4% in data set [2] (post-OAGB conditions, pH 7, 50 mL); 100% in data set [2] (post-SG conditions, pH 5, 50 mL); 100% in data set [2] (pre-surgery conditions, pH 1, 250 mL). The solubility at 24 h is greater than 30 mg/mL in the data set “physchem [3]” (37 °C, pH 3, aqueous buffer, thermodynamic from solid); 27.4 mg/mL (≈ 56.1 mM) in the data set “physchem [3]” (37 °C, pH 5, aqueous buffer, thermodynamic from solid); 0.05 mg/mL (≈ 0.102 mM) in the data set “physchem [3]” (37 °C, pH 7, aqueous buffer, thermodynamic from solid); greater than 30 mg/mL in “physchem [3]” (pH 1). Moreover, the “Decrease in saturation solubility” value in “physchem [3]” (24 h) is “over 600 fold”. For the same compound, the “Solubility at 37 °C” value in “physchem [3]” (24 h, pH 1) is given as 30 mg/mL (≈ 61.4 mM); in “physchem [3]” (24 h, pH 3) it was 30 mg/mL (≈ 61.4 mM). Further, the “Lower ex vivo solubility after vs. before the surgery” value in the data set “physchem [4]” was greater than 500 fold. The solubility in the data set “physchem [4]” (pH 2, plasma or biological fluid) is greater than 30 mg/mL; in the data set “physchem [4]” (pH 7, plasma or biological fluid), 0.06 mg/mL (≈ 0.123 mM). Besides, the entries for the “AUC0−inf, observed” value in data set [5] (10 mg single oral dose) and in data set [5] (20 mg single oral dose) were 27.29 ng·h/mL and 41.86 ng·h/mL, respectively. Moreover, the entries for the “Cmax, observed” value in data set [5] (10 mg single oral dose) and in data set [5] (20 mg single oral dose) were 7.20 ng/mL and 16.30 ng/mL, respectively. Also, the “Tmax, observed” value in data set [5] (10 mg single oral dose) is 57 min; in data set [5] (20 mg single oral dose), 46.8 min.
